Non-standard residues stand in square brackets, D forms with d. Residues, ends and D or L forms follow the SMILES beside them. ξ: configuration not given here. dPip = O=C(O)[C@H]1CCCCN1; dThz = O=C(O)[C@H]1CSCN1; ξAze = O=C(O)C1CCN1
Columns and labels:
human thrombin = human thrombin (Homo sapiens, UniProt P00734); test: Thrombin amidase inhibition (Kass), chromogenic substrate; type: biochemical
Method in brief: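 Purified human thrombin (8 NIH units/ml solution) mixed with compound in 50% aqueous methanol and 0.03M Tris, 0.15M NaCl, pH 7.4; chromogenic substrate (0.25 mg/ml solution) added, p-nitroaniline release followed at 405 nm. Free thrombin read from a standard curve; Kass (L/mol) is the mean over a range of compound concentrations.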

[1] = Index of Bioavailability (plasma TT AUC, oral vs i.v.); type: in vivo; settings: rats, oral vs i.v. bolus
Text: Assays are done in duplicate and averaged.
Each sample population represents alternating sequential time points.

factor Xa = target: T1, factor Xa (Homo sapiens, UniProt P00742); test: Serine protease inhibition (Kass), factor Xa; type: biochemical
T1 construct: Human factors X, Xa, IXa, XIa, and XIIa are purchased from Enzyme Research Laboratories; purchased Enzyme Research Laboratories, South Bend, Ind
Method in brief: (§1)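 Chromogenic p-nitroanilide substrate assays run as for human thrombin; trypsin with N-Benzoyl-Phe-Val-Arg-p-nitroanilide, human factor Xa with N-Benzoyl-Ile-Glu-Gly-Arg-p-nitroanilide. Values are association constants (Kass).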

Bovine trypsin = target: T2, Bovine trypsin (Bos taurus, UniProt P00760); test: Serine protease inhibition (Kass), trypsin; type: biochemical
T2 construct: Bovine trypsin is purchased from Worthington Biochemicals; purchased Worthington Biochemicals, Freehold, N.J
T2 sequence (P00760 24-246): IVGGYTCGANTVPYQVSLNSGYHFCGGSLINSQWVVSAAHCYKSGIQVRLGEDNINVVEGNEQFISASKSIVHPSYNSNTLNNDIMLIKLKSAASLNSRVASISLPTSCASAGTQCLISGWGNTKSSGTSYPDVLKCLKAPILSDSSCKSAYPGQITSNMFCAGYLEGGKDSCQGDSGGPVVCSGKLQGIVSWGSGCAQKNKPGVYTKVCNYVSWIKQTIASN
Method in brief: as §1

Human plasmin = target: T3, Human plasmin (Homo sapiens, UniProt P00747); test: Serine protease inhibition (Kass), plasmin; type: biochemical
T3 construct: Human plasmin is purchased from Boehringer Mannheim; purchased Boehringer Mannheim, Indianapolis, Ind
Method in brief: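 Chromogenic enzyme assays run as for human thrombin, giving association constants (Kass). Human plasmin used with H-D-Val-Leu-Lys-p-nitroanilide; t-PA (single-chain nt-PA or modified mt-PA6) with H-D-Ile-Pro-Arg-p-nitroanilide.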

[2] = target: T4, tissue plasminogen activator (t-PA) (Homo sapiens, UniProt P00750); test: Serine protease inhibition (Kass), t-PA; type: biochemical
T4 construct: purchased American Diagnostica, Greenwich, Conn

human plasma [3] = test: Human plasma anticoagulation, thrombin time (TT); type: biochemical
Method in brief: (§2)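 Compounds added across a wide concentration range to human plasma; APTT, PT and TT clotting times measured on a coagulation instrument, bovine thrombin used for plasma assays. Concentration doubling clotting time estimated by linear extrapolation.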

human plasma [4] = test: Human plasma anticoagulation, activated partial thromboplastin time (APTT); type: biochemical
Method in brief: as §2

human plasma [5] = test: Human plasma anticoagulation, prothrombin time (PT); type: biochemical
Method in brief: as §2

T4 sequence (P00750 36-562): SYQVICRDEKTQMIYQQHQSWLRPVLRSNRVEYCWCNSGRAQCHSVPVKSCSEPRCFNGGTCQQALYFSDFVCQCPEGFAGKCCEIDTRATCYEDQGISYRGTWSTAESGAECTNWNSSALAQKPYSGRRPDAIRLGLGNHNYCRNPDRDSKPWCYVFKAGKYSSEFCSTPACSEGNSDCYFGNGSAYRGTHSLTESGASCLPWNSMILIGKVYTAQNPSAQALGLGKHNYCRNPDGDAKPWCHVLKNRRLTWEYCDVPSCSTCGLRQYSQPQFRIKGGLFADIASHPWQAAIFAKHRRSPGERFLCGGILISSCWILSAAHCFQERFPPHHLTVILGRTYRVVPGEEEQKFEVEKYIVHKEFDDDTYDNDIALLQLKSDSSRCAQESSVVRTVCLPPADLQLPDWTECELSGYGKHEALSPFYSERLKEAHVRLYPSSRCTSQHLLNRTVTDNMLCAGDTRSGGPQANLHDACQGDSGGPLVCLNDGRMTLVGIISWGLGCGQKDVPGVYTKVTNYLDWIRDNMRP
T1 sequence (P00742 235-488 limits assumed): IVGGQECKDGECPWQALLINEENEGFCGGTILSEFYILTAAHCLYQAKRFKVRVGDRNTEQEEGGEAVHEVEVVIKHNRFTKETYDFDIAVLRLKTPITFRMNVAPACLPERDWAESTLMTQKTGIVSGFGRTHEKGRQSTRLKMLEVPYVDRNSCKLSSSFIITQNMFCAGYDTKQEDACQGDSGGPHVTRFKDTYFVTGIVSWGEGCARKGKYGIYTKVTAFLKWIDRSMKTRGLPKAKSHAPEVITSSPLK
T1 sequence (P00742 41-179 partner limits assumed): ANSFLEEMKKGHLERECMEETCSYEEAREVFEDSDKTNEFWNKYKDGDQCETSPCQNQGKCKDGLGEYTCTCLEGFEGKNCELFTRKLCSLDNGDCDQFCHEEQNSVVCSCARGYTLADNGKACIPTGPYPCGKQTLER
T3 sequence (P00747 581-810 limits assumed): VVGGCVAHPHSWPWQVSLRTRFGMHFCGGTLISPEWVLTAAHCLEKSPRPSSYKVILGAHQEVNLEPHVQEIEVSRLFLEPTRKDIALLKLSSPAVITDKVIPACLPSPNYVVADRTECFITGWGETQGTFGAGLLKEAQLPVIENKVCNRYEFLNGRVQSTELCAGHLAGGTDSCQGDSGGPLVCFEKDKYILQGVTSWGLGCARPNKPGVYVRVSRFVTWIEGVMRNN
T3 sequence (P00747 97-580 partner limits assumed): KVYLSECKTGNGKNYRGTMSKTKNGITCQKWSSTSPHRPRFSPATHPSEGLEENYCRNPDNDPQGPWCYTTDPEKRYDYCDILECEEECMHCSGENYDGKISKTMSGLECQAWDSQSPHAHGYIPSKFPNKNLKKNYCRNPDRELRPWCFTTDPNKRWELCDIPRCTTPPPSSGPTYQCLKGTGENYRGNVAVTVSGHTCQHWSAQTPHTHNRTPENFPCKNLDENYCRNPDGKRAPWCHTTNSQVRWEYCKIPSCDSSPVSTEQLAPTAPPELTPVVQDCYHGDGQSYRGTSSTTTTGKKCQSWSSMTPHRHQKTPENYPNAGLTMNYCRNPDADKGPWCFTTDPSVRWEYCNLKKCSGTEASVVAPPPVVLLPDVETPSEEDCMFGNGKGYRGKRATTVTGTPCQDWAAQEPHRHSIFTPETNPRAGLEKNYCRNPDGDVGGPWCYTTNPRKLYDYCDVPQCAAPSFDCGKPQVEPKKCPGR

| Compound | Kass Human Thrombin (human thrombin) [L/mol × 10^6] | Percent Relative Activity (Index of Bioavailability) [1] [%] | Kass Xa (factor Xa) [L/mol × 10^6] | Kass Trypsin (Bovine trypsin) [L/mol × 10^6] | Kass Plasmin (Human plasmin) [L/mol × 10^6] | Kass t-PA [2] [L/mol × 10^6] | 2 × Clotting time TT (human plasma [3]) [ng/mL] | 2 × Clotting time APTT (human plasma [4]) | 2 × Clotting time PT (human plasma [5]) |
| --- | --- | --- | --- | --- | --- | --- | --- | --- | --- |
| Cl.Cl.N=C(N)NCCC[C@@H](C=O)NC(=O)[C@@H]1CCCN1C(=O)C1NCCCC2CCCCC21 (mixture of isomers) [Example 8, DL-cis-3-aza-bicyclo[5.4.0]undecanyl-2-carbonyl-L-prolinyl-L-arginine aldehyde dihydrochloride] | 595 | 43 |  |  |  |  |  |  |  |
| Cl.Cl.Cl.N=C(N)NCCC[C@@H](C=O)NC(=O)[C@@H]1CCCN1C(=O)[C@H]1C[C@@H](Oc2ccccc2)CN1.O (relative stereo) [Example 12, D-Cis-(4-phenoxy)Prolinyl-L-Prolinyl-L-Arginine Aldehyde Trihydrochloride Monohydrate] | 25 | 16 |  |  |  |  |  |  |  |
| Cl.Cl.N=C(N)NCCC[C@@H](C=O)NC(=O)C1CCN1C(=O)[C@H]1CCCCN1 (stereo partly drawn) [Example 3, D-Homoprolinyl-L-Azetidinyl-L-Arginine Aldehyde Dihydrochloride] (H-[dPip]-[ξAze]-Arg-aldehyde) | 45 | 32 |  |  |  |  |  |  |  |
| Cl.Cl.N=C(N)NCCC[C@@H](C=O)NC(=O)[C@@H]1CCCN1C(=O)[C@H]1CSCN1 [Example 4, D-Thiazolidinyl-4-Carbonyl-L-Prolinyl-L-Arginine Aldehyde Dihydrochloride] (H-[dThz]-Pro-Arg-aldehyde) | 5 | 16 |  |  |  |  |  |  |  |
| Cl.Cl.N=C(N)NCCC[C@@H](C=O)NC(=O)[C@@H]1CCCN1C(=O)C1CNCCN1 (stereo partly drawn) [Example 9, D,L-Piperazin-2-yl-L-Prolinyl-L-Arginine Aldehyde Dihydrochloride] | 121 | 19 |  |  |  |  |  |  |  |
| Cl.Cl.N=C(N)NCCC[C@@H](C=O)NC(=O)[C@@H]1CCCN1C(=O)C1NCCS1 (stereo partly drawn) [Example 10, D,L-Thiazolidinyl-2-carbonyl-L-prolinyl-L-arginine aldehyde dihydrochloride] | 27 | 5 |  |  |  |  |  |  |  |
| CNC(CC(=O)N1CCC[C@H]1C(=O)N[C@H](C=O)CCCNC(=N)N)c1ccccc1.Cl.Cl.O.O (stereo partly drawn) [Example 15, N-methyl-3-amino-3-phenylpropionyl-L-Prolinyl-L-Arginine Aldehyde Dihydrochloride Dihydrate] | 70 | 28 |  |  |  |  |  |  |  |
| CNC(CC(=O)N1CCC[C@H]1C(=O)N[C@H](C=O)CCCNC(=N)N)C1CCCCC1.CNC(CC(=O)N1CCC[C@H]1C(=O)N[C@H](C=O)CCCNC(=N)N)C1CCCCC1.Cl.Cl.Cl.Cl.O (stereo partly drawn) [Example 16, N-methyl-3-amino-3-cyclohexyl propionyl-L-Pro-L-Arg aldehyde dihydrochloride hemihydrate] | 85 | 19 |  |  |  |  |  |  |  |
| CNCC(Cc1ccccc1)C(=O)N1CCC[C@H]1C(=O)N[C@H](C=O)CCCNC(=N)N.Cl.Cl.O (stereo partly drawn) [Example 17, N-Methyl-3-amino-2-benzylpropionyl-L-Pro-L-Arg Aldehyde Dihydrochloride Monohydrate] | 12 | 8 |  |  |  |  |  |  |  |
| Cl.Cl.Cl.N=C(N)NCCC[C@@H](C=O)NC(=O)[C@@H]1CCCN1C(=O)C1CCCCC1N.O (stereo partly drawn) [Example 22, 2-aminocyclohexylcarbonyl-L-Pro-L-Arginine Aldehyde Trihydrochloride Monohydrate] | 39 | 15 |  |  |  |  |  |  |  |
| Cl.N=C(N)NCCC[C@@H](C=O)NC(=O)[C@@H]1CCCN1C(=O)[C@@H](Cc1ccccc1)NC(=O)Cc1ccccc1 [Example 70, N-(phenylacetyl)-D-phenylalanyl-L-Prolinyl-L-Arginine Aldehyde Hydrochloride] | 29 |  | 0.10 | 14 | 0.54 | 0.37 | 64 | 1,100 ng/mL | 2,000 ng/mL |
| Cl.N=C(N)NCCC[C@@H](C=O)NC(=O)[C@@H]1CCCN1C(=O)[C@@H](Cc1ccccc1)NC(=O)C1CCCCC1 [Example 71, N-(cylohexoyl)-D-phenylalanyl-L-Prolinyl-L-Arginine Aldehyde Hydrochloride] | 20 |  | 0.064 | 5.9 | 0.24 | 0.26 | 63 | 1,300 ng/mL | 1,800 ng/mL |
| CCCN(CCC)S(=O)(=O)c1ccc(C(=O)N[C@H](Cc2ccccc2)C(=O)N2CCC[C@H]2C(=O)N[C@H](C=O)CCCNC(=N)N)cc1.Cl [Example 73, N-(4-di-n-propylaminosulfonylbenzoyl)-D-phenylalanyl-L-Prolinyl-L-Arginine Aldehyde Hydrochloride] | 43 |  | 0.32 | 15 | 0.86 | 0.62 | 150 | 3,500 ng/mL | 4,800 ng/mL |
| CCNC(=O)N[C@H](Cc1ccccc1)C(=O)N1CCC[C@H]1C(=O)N[C@H](C=O)CCCNC(=N)N.Cl [Example 76, N-(ethylaminocarbonyl)-D-phenylalanyl-L-Prolinyl-L-Arginine Aldehyde Hydrochloride] | 25 |  | 0.21 | 60 | 2.0 | 0.54 | 63 | 1,100 ng/mL | 1,700 ng/mL |
| CCOC(=O)N[C@H](CC1CCCCC1)C(=O)N1CCC[C@H]1C(=O)N[C@H](C=O)CCCNC(=N)N.Cl [Example 78, N-(ethoxycarbonyl)-D-cyclohexylalanyl-L-prolinyl-L-Arginine Aldehyde Hydrochloride] | 360 |  | 8.1 | 140 | 26 | 0.75 | 48 | 410 ng/mL | 890 ng/mL |
| CN[C@@H](C(=O)N1CCC[C@H]1C(=O)N[C@@H](CCCNC(=N)N)C(O)S(=O)(=O)[O-])c1ccccc1.O=S(=O)(O)O.[Na+] (stereo partly drawn) [Example 79, N-methyl-D-phenylglycinyl-L-prolinyl-NH-CH[(CH2)3 NH-C(NH)-NH2]-C(OH)SO3 Na.H2 SO4] | 239 | 21 |  | 84 | 1.8 | 0.01 |  |  |  |
| D-Prolinyl-L-Prolinyl-L-Arginine Aldehyde Dihydrochloride [Example 2] | 12 | 36 |  |  |  |  |  |  |  |
